Experimental data from publication PMC8896310 (Cell, 2022).

Assays:
BVU_0767 = target: T1, BVU_0767 (Phocaeicola vulgatus, UniProt A6KYF7); assay: DTNB thioesterase assay, […] nm; assay type: biochemical; settings: 100 uM acyl-CoA, 25 nM enzyme, 60 mM potassium phosphate pH 7.4, 37 C
T1 sequence (A6KYF7 1-137): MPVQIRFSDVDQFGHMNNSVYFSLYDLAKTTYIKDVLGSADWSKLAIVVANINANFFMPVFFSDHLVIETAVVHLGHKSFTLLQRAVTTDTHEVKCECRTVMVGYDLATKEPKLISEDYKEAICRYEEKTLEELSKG

BT_3942 = target: T2, BT_3942 (Bacteroides thetaiotaomicron, UniProt Q8A0S9); assay: DTNB thioesterase assay, […] nm; assay type: biochemical; settings: 100 uM acyl-CoA, 25 nM enzyme, 60 mM potassium phosphate pH 7.4, 37 C
T2 sequence (Q8A0S9 1-145): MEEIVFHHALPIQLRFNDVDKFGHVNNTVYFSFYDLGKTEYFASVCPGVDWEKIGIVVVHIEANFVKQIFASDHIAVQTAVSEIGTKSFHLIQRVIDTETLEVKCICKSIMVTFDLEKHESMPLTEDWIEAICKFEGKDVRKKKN

Row | Structure (SMILES) | DTNB thioesterase assay, 412 nm (BVU_0767) | DTNB thioesterase assay, 412 nm (BT_3942)
1 | CCC(=O)SCCNC(=O)CCNC(=O)[C@H](O)C(C)(C)COP(=O)(O)OP(=O)(O)OC[C@H]1O[C@@H](n2cnc3c(N)ncnc32)[C@H](O)[C@@H]1OP(=O)(O)O [propionyl-CoA] | different substrate specificity for hydrolysis of short chain lengths of Acyl-CoAs and propionyl- and butyryl-CoA | different substrate specificity for hydrolysis of short chain lengths of Acyl-CoAs and propionyl- and butyryl-CoA
2 | CCCC(=O)SCCNC(=O)CCNC(=O)[C@H](O)C(C)(C)COP(=O)(O)OP(=O)(O)OC[C@H]1O[C@@H](n2cnc3c(N)ncnc32)[C@H](O)[C@@H]1OP(=O)(O)O [butyryl-CoA] | different substrate specificity for hydrolysis of short chain lengths of Acyl-CoAs and propionyl- and butyryl-CoA | –
